Reference: article PMC2631625 (Bioorganic & medicinal chemistry letters, 2008)

Biological target: CB1 receptors (Rattus norvegicus, UniProt P20272)
Experiment: Inhibition of [3H]SR141716 binding in homogenates of rat cerebellum
Conditions: [3H]SR141716 radioligand

Chain of CB1 receptors (P20272 whole entry): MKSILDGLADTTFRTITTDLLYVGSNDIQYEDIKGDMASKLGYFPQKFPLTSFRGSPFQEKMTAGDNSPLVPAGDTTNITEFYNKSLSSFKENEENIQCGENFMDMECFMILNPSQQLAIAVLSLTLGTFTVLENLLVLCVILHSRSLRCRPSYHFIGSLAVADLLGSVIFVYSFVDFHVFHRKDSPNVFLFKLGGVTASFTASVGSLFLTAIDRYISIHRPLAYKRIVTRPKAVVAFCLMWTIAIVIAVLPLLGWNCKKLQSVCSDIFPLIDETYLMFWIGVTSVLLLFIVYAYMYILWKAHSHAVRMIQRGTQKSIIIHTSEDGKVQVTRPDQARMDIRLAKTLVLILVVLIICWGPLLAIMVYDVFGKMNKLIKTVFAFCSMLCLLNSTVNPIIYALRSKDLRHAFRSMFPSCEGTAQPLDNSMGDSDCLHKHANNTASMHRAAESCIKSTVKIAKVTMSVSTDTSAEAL

SMILES | binding affinity at CB1 receptors (in words)
Clc1ccc(-c2cnnn2-c2ccc(Cl)cc2)cc1 [Compound 7a] | low affinity
Clc1ccc(-c2cnnn2-c2ccc(Cl)cc2Cl)cc1 [Compound 7b] | low affinity
O=C(NN1CCCCC1)c1nnn(-c2ccc(Cl)cc2)c1-c1ccc(Cl)cc1 [Compound 9] | low affinity
O=C(OCc1ccccc1)c1nnn(-c2ccc(Cl)cc2Cl)c1-c1ccc(Cl)cc1 [Compound 15] | somewhat diminished
